# Test results published in patent US5245034A, “Compound having vessel smooth muscle relaxation activity” (Hidaka; Kiroyoshi, priority 1988, dated 1993).
# Where a name gives a salt, the structure may show the parent alone.
# System: superior mesenteric artery (contracted by potassium chloride)
# Test: Vessel Smooth Muscle Relaxation Action (V.R.)
# Type: cell-based, rabbit
# Conditions: Oryctolagus cuniculus; concentration relaxing KCl-contracted strain to 50%; cumulative administration; read-out: V.R. (ED50)
# Source text: The specimen was suspended by loading a strain in Krebs-Henseleit solution through which an oxygen gas containing 5% carbon dioxide was bubbled. The specimen was contracted by adding potassium chloride to maintain a predetermined strain. Thereafter, a test compound was cumulatively administrated.
row,EC50,Structure (SMILES)
1,1.6 µM,"CN(C(Cc1ccc(O)c(O)c1)CN1CCN(c2ccccc2)CC1)S(=O)(=O)c1cccc2cnccc12 (stereo not drawn) [Example 7, N-{1-[(3,4-Dihydroxyphenyl)Methyl]-2-(4-Phenylpiperazinyl)Ethyl}-N-Methyl-Isoquinoline Sulfonamide]"
2,8.6 µM,"COc1ccc(N2CCN(CC(Cc3ccc(O)cc3)NS(=O)(=O)c3cccc4cnccc34)CC2)cc1 (stereo not drawn) [Example 55, N-{1-(p-hydroxybenzyl)-2-[4-(p-methoxyphenyl)piperazinyl]ethyl}-5-isoquinolinesulfonamide]"
3,47 µM,"O=S(=O)(NC(Cc1cnc[nH]1)CN1CCN(c2ccccc2)CC1)c1cccc2cnccc12 (stereo not drawn) [Example 2, N-[1-(Imidazol-4(5)-Yl-Methyl)-2-(4-Phenylpiperazinyl)Ethyl]-5-IsoquinolineSulfonamide]"
4,14 µM,"COc1ccc(CC(CN2CCN(C(=O)OCc3ccccc3)CC2)NS(=O)(=O)c2cccc3cnccc23)cc1 (stereo not drawn) [Example 73, N-[2-(4-benzyloxycarbonylpiperazinyl)-1-(p-methoxybenzyl)ethyl]-5-isoquinolinesulfonamide]"
5,4 µM,"COc1ccc(CC(CN2CCN(C(=O)OCc3ccccc3)CC2)N(C)S(=O)(=O)c2cccc3cnccc23)cc1 (stereo not drawn) [Example 72, N-[2-(4-benzyloxycarbonylpiperazinyl)-1-(p-methoxybenzyl)ethyl]-N-methyl-5-isoquinolinesulfonamide]"
6,0.39 µM,"CN(C(Cc1ccc(O)cc1)CN1CCN(c2cccc(Cl)c2)CC1)S(=O)(=O)c1cccc2cnccc12 (stereo not drawn) [Example 47, N-{2-[4-(m-chlorophenyl)piperazinyl]-1-(p-hydroxybenzyl)ethyl}-N-methyl-5-isoquinolinesulfonamide]"
7,1.8 µM,"O=S(=O)(NC(Cc1ccc(O)c(O)c1)CN1CCN(c2ccccc2)CC1)c1cccc2cnccc12 (stereo not drawn) [Example 8, N-{1-[(3,4-Dihydroxyphenyl)Methyl]-2-(4-Phenylpiperazinyl)Ethyl}-5-Isoquinoline Sulfonamide]"
8,13 µM,"COc1ccc(N2CCN(CC(Cc3ccc(NS(=O)(=O)c4cccc5cnccc45)cc3)NS(=O)(=O)c3cccc4cnccc34)CC2)cc1 (stereo not drawn) [Example 130, N-{1-[p-(5-isoquinolinesulfonylaminobenzyl)]-2-[4-(p-methoxyphenyl]piperazinyl]ethyl}-5-isoquinolinesulfonamide]"
9,4 µM,"CN(C(Cc1ccc(O)cc1)CN1CCN(c2ccccn2)CC1)S(=O)(=O)c1cccc2cnccc12 (stereo not drawn) [Example 46, N-{1-(p-hydroxybenzyl)-2-[4-(2-pyridyl)piperazinyl]ethyl}-N-methyl-5-isoquinolinesulfonamide]"
10,0.82 µM,"COc1ccc(N2CCN(CC(Cc3ccc(NS(=O)(=O)c4cccc5cnccc45)cc3)N(C)S(=O)(=O)c3cccc4cnccc34)CC2)cc1 (stereo not drawn) [Example 129, N-{1-[p-(5-isoquinolinesulfonylaminobenzyl)]-2-[4-(p-methoxyphenyl)piperazinyl]ethyl}-N-methyl-5-isoquinolinesulfonamide]"
11,1.7 µM,"COc1ccc(N2CCN(CC(Cc3ccc(O)cc3)N(C)S(=O)(=O)c3cccc4cnccc34)CC2)cc1 (stereo not drawn) [Example 54, N-{1-(p-hydroxybenzyl)-2-[4-(p-methoxyphenyl)piperazinyl]ethyl}-N-methyl-5-isoquinolinesulfonamide]"
12,2.9 µM,"CN(C(Cc1ccc(O)cc1)CN1CCN(S(=O)(=O)Cc2ccccc2)CC1)S(=O)(=O)c1cccc2cnccc12 (stereo not drawn) [Example 76, N-[2-(4-benzylsulfonylpiperazinyl)-1-(p-hydroxybenzyl)ethyl]-N-methyl-5-isoquinolinesulfonamide]"
13,5.5 µM,"CN(C(Cc1ccc(O)cc1)CN1CCN(C(=O)OCc2ccccc2)CC1)S(=O)(=O)c1cccc2ccccc12 (stereo not drawn) [Example 79, N-[2-(4-benzyloxycarbonylpiperazinyl)-1-(p-hydroxybenzyl)ethyl]-N-methyl-α-naphtharenesulfonamide]"
14,21 µM,"O=C([C@H](Cc1ccc(O)cc1)NS(=O)(=O)c1cccc2cnccc12)N1CCN(CCCc2ccccc2)CC1 [Example 33, 1-[N-(5-Isoquinolinesulfonyl)Tyrosyl]-4-(3-Phenylpropyl)Piperazine]"
15,1.5 µM,"O=C(OCc1ccccc1)N1CCCN(CC(Cc2ccc(O)cc2)NS(=O)(=O)c2cccc3cnccc23)CC1 (stereo not drawn) [Example 116, N-{2-(4-benzyloxycarbonylhomopiperazinyl)-1-(p-hydroxybenzyl)ethyl}-5-isoquinolinesulfonamide]"
16,8.1 µM,"COc1ccc(CC(CN2CCN(c3ccccc3)CC2)N(C)S(=O)(=O)c2cccc3cnccc23)cc1 (stereo not drawn) [Example 38, N-[1-(P-Methoxybenzyl)-2-(4-Phenylpiperazinyl)Ethyl]-N-Methyl-5-Isoquinolinesulfonamide]"
17,19 ± 3 µM,"COc1ccc(CC(NS(=O)(=O)c2cccc3cnccc23)C(=O)N2CCCN(C(=O)Cc3ccccc3)CC2)cc1 (stereo not drawn) [Example 120, 1-[N-(5-Isoquinolinesulfonyl)-O-Methyl]Tyrosyl-4-Phenylacetylhomopiperazine]"
18,1.8 µM,"Cc1ccc(S(=O)(=O)Nc2ccc(C[C@@H](C(=O)N3CCN(c4ccccc4)CC3)N(C)S(=O)(=O)c3cccc4cnccc34)cc2)cc1 [Example 22, 1-[N-(5-isoquinolinesulfonyl)-N-methyl-p-(p-toluenesulfonylamino)phenylalanyl]-4-phenylpiperazine]"
19,1.2 µM,"COc1ccccc1N1CCN(CC(Cc2ccc(O)cc2)N(C)S(=O)(=O)c2cccc3cnccc23)CC1 (stereo not drawn) [Example 56, N-{1-(p-hydroxybenzyl)-2-[4-(2-methoxyphenyl)piperazinyl]ethyl}-N-methyl-5-isoquinolinesulfonamide]"
20,29 µM,COc1ccc(CC(CN2CCC(O)CC2)N(C)S(=O)(=O)c2cccc3cnccc23)cc1 (stereo not drawn) [Example 101]

# The remaining lines, values behind:
row,Structure (SMILES),EC50
1,"COc1cc(C=CCNCCNS(=O)(=O)c2cccc3cnccc23)cc(OC)c1OC [Example 185, N-[2-(3,4,5-Trimethoxycinnamylamino)ethyl]-5-Isoquinolinesulfonamide]",0.21 µM
2,"CC(C=Cc1ccccn1)NCCNS(=O)(=O)c1cccc2cnccc12 (stereo not drawn) [Example 162, N-{2-[1-Methyl-3-(2-Pyridyl)-2-Propenylamino]Ethyl}-5-Isoquinolinesulfonamide]",35 µM
3,CC(C=Cc1ccc(O)cc1)NCCNS(=O)(=O)c1cccc2cnccc12 (stereo not drawn) [Example 170],5.2 µM
4,"CC(C=Cc1cccs1)NCCNS(=O)(=O)c1cccc2cnccc12 (stereo not drawn) [Example 164, N-{2-[1-Methyl-3-(2-Thienyl)-2-Procenylamino]ethyl}-5-Isoquinolinesulfonamide]",4.1 µM
5,CN(C(Cc1ccc(OS(=O)(=O)c2cccc3cnccc23)cc1)CN1CCN(c2ccc(F)cc2)CC1)S(=O)(=O)c1cccc2cnccc12 (stereo not drawn) [Example 49],0.92 µM
6,"O=S(=O)(NCCNCC=Cc1ccc(O)cc1)c1cccc2cnccc12 [Example 183, N-[2-(4-Hydroxycinnamylamino)ethyl]-5-Isoquinolinesulfonamide]",2.8 µM
7,CN(C(Cc1ccc(O)cc1)CN1CCC(O)CC1)S(=O)(=O)c1cccc2cnccc12 (stereo not drawn) [Example 100],95 µM
8,"CN(C(Cc1ccc(OS(=O)(=O)c2cccc3cnccc23)cc1)CN1CCN(c2ccccn2)CC1)S(=O)(=O)c1cccc2cnccc12 (stereo not drawn) [Example 45, N-{1-[p-(5-isoquinolinesulfonyloxy)benzyl]-2-[4-(2-pyridyl)piperazinyl]ethyl}-N-methyl-5-isoquinolinesulfonamide]",7.5 µM
9,"CC(C=Cc1ccco1)NCCNS(=O)(=O)c1cccc2cnccc12 (stereo not drawn) [Example 165, N-{2-[3-(2-Furyl)-1-Methyl-2-Propenylamino]Ethyl}-5-Isoquinolinesulfonamide]",11 µM
10,"CN(CC=Cc1ccc(Cl)cc1)CCNS(=O)(=O)c1cccc2cnccc12 [Example 190, N-[2-(4-Chloro-N-Methylcinnamylamino)ethyl]-5-Isoquinolinesulfonamide]",0.19 µM
11,"CN(C(Cc1ccc(O)cc1)CN1CCN(c2ncccn2)CC1)S(=O)(=O)c1cccc2cnccc12 (stereo not drawn) [Example 42, N-{1-(p-hydroxybenzyl)-2-[4-(2-pyrimidyl)piperazinyl]ethyl}-N-methyl-5-isoquinolinesulfonamide]",6.2 µM
12,"COCCOCOc1ccc(C=CCNCCNS(=O)(=O)c2cccc3cnccc23)cc1 [Example 182, N-{2-[4-(2-Methoxyethoxy)Methoxycinnamylamino]Ethyl}-5-Isoquinolinesulfonamide]",17 µM
13,"CC(C=Cc1ccccc1)NCCCNS(=O)(=O)c1cccc2cnccc12 (stereo not drawn) [Example 171, N-[3-(α-Methylcinnamylamino)Propyl]-5-Isoquinolinesulfonamide]",5.4 µM
14,"COc1ccc(C=CC(C)NCCNS(=O)(=O)c2cccc3cnccc23)cc1 (stereo not drawn) [Example 169, N-2-(4-Methoxy-α-Methylcinnamylamino)ethyll-5-Isoquinolinesulfonamide]",4.6 µM
15,CC(C=Cc1ccc2c(c1)OCO2)NCCNS(=O)(=O)c1cccc2cnccc12 (stereo not drawn) [Example 161],4.7 µM
16,"COc1ccc(N2CCN(CC(Cc3ccc(N(C)S(=O)(=O)c4cccc5cnccc45)cc3)N(C)S(=O)(=O)c3cccc4cnccc34)CC2)cc1 (stereo not drawn) [Example 131, N-[[1-{P-[N-5-Isoquinolinesulfonyl)-N-(Methylamino)Benzyl]}-2-[4-(P-Methoxyphenylpiperazinyl]Ethyl]]-N-Methyl-5-Isoquinolinesulfonamide]",1.5 µM
17,"Cc1cccc(N2CCN(CC(Cc3ccc(O)cc3)N(C)S(=O)(=O)c3cccc4cnccc34)CC2)c1 (stereo not drawn) [Example 51, N-{1-(p-hydroxybenzyl)-2-[4-(m-methylphenyl)piperazinyl]ethyl}-N-methyl-5-isoquinolinesulfonamide]",0.17 µM
18,"O=S(=O)(NCCNCC=Cc1ccccc1)c1cccc2cnccc12 [Example 201, N-(2-Cinnamylaminoethyl)-5-Isoquinolinesulfonamide.1/2 Fumarate]",3.2 µM

# Same assay, conditions: concentration relaxing KCl-contracted strain to 50%; cumulative administration; read-out: V.R. (ED50)
row,EC50,Structure (SMILES)
1,14 µM,"O=S(=O)(NC(Cc1ccc(O)cc1)CN1CCN(CCCc2ccccc2)CC1)c1cccc2cnccc12 (stereo not drawn) [Example 69, N-{1-(p-hydroxybenzyl)-2-[4-(3-phenylpropyl)piperazinyl]ethyl}-5-isoquinolinesulfonamide]"
